Results: patent publication US20140163026A1, “8-ETHYL-6-(ARYL)PYRIDO[2,3-D]PYRIMIDIN-7(8H)-ONES FOR THE TREATMENT OF NERVOUS SYSTEM DISORDERS AND CANCER” (Afraxis Holdings, Inc., priority 2011, published 2014)

Key:
Assay type in all cases: biochemical
PAK1 = PAK1 (Homo sapiens, UniProt Q13153); assay: In vitro PAK inhibition assay (SelectScreen, Ser/Thr 19 peptide)
Method: (§1) Compounds are screened in 1% DMSO (final) in the well. For 10 point titrations, 3-fold serial dilutions are conducted.
(§2) All Peptide/Kinase Mixtures are diluted to a 2× working concentration in the appropriate Kinase Buffer
The 2×PAK1/Ser/Thr 19 mixture is prepared in 50 mM HEPES pH 7.5, 0.01% BRIJ-35, 10 mM MgCl2, 1 mM EGTA.
(§3) This control yields 100% cleaved peptide in the Development Reaction.
(§4) The 100% Phosphorylation Control, which consists of a synthetically phosphorylated peptide of the same sequence as the peptide substrate, is designed to allow for the calculation of percent phosphorylation.
(§5) This control is designed to produce a 10-50%* phosphorylated peptide in the Kinase Reaction.
(§6) A known inhibitor control standard curve, 10 point titration, is run for each individual kinase on the same plate as the kinase to ensure the kinase is inhibited within an expected IC50 range previously determined.
(§7) Add the following solutions to a well in a 384-well plate: • 2.5 μL of 4× Test Compound OR (100 nL 100× Test Compound plus 2.4 μL kinase buffer) • 5 μL of 2× Peptide/Kinase (PAK) Mixture • 2.5 μL of 4×ATP Solution • 2. Shake the plate for 30-seconds • 3. Incubate the PAK Kinase Reaction at room temperature for 60-minutes • 4. Add 5 μL of Development Reagent Solution to each well • 5. Shake the plate for 30-seconds • 6. Incubate the Development Reaction for 60-minutes • 7. Determine the fluorescence using a fluorescence plate reader • 8. Analyze the fluorescence data
(§8) SelectScreen® Kinase Profiling Service uses XLfit from IDBS.
(§9) The representative IC50 value with a known inhibitor for each kinase was determined at the ATP bin nearest to the ATP Km app.

PAK2 (PAK65) = PAK2 (PAK65) (Homo sapiens, UniProt Q13177); assay: In vitro PAK inhibition assay (SelectScreen, Ser/Thr 20 peptide)
PAK2 (PAK65), sequence (Q13177 whole entry): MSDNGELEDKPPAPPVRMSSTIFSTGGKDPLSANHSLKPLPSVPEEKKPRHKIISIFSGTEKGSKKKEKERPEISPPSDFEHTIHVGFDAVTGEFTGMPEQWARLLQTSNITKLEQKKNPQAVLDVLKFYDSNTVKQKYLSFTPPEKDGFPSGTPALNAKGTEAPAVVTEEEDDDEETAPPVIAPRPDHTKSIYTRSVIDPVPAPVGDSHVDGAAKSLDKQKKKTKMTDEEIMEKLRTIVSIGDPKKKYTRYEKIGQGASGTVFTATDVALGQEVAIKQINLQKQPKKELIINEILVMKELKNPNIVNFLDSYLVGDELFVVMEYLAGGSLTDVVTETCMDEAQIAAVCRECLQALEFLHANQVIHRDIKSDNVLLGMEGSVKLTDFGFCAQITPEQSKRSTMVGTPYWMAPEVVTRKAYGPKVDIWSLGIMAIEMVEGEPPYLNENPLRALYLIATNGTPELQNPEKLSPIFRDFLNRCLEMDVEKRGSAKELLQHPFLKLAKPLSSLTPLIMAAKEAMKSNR
Method: as §1, §2
The 2×PAK2 (PAK65)/Ser/Thr 20 mixture is prepared in 50 mM HEPES pH 7.5, 0.01% BRIJ-35, 10 mM MgCl2, 1 mM EGTA. The final 10 μL Kinase Reaction consists of 0.29-6 ng PAK2 (PAK65) and 2 μM Ser/Thr 20 in 50 mM HEPES pH 7.5, 0.01% BRIJ-35, 10 mM MgCl2, 1 mM EGTA.
as §3, §4, §5, §6, §7, §8, §9

PAK3 = PAK3 (Homo sapiens, UniProt O75914); assay: as above
PAK3, sequence (O75914 whole entry): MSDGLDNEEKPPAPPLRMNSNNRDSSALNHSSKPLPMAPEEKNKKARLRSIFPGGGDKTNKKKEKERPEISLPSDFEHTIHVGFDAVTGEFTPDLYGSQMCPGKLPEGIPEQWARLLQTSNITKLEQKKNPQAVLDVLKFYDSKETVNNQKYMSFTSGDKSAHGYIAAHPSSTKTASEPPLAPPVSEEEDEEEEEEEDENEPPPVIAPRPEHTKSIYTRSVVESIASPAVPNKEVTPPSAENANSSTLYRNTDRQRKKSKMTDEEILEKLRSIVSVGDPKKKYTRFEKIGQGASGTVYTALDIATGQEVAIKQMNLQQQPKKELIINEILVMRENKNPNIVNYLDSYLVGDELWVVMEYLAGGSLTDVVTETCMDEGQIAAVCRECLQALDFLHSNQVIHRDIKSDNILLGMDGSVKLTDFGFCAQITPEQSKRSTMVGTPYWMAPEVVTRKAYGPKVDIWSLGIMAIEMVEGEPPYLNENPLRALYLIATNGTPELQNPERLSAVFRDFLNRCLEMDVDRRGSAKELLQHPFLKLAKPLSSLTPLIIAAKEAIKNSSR
Method: as §1, §2
The 2×PAK3/Ser/Thr 20 mixture is prepared in 50 mM HEPES pH 7.5, 0.01% BRIJ-35, 10 mM MgCl2, 1 mM EGTA.
as §3, §4, §5, §6, §7, §8, §9

PAK4 = PAK4 (Homo sapiens, UniProt O96013); assay: as above
PAK4, sequence (O96013 whole entry): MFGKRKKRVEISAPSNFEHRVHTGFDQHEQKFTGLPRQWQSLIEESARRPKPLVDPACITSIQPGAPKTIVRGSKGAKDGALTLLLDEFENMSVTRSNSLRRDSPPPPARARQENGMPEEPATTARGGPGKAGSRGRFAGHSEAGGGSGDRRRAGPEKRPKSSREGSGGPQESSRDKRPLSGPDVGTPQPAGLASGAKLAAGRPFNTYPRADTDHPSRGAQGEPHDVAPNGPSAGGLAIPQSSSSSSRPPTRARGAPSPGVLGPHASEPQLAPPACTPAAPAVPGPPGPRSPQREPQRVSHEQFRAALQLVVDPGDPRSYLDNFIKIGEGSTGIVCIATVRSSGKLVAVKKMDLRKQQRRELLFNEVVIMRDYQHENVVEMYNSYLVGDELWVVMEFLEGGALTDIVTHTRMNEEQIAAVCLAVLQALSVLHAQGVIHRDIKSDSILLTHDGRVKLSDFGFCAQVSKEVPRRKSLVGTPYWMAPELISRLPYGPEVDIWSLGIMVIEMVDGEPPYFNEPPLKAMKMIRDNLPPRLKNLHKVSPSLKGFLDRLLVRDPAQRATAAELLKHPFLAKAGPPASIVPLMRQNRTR
Method: as §1, §2
The 2×PAK4/Ser/Thr 20 mixture is prepared in 50 mM HEPES pH 7.5, 0.01% BRIJ-35, 10 mM MgCl2, 1 mM EGTA. The final 10 μL Kinase Reaction consists of 0.1-0.75 ng PAK4 and 2 μM Ser/Thr 20 in 50 mM HEPES pH 7.5, 0.01% BRIJ-35, 10 mM MgCl2, 1 mM EGTA. After the 1 hour Kinase Reaction incubation, 5 μL of a 1:256 dilution of Development Reagent A is added.
as §3, §4
The minimum Emission Ratio in a screen is established by the 0% Inhibition Control, which contains active kinase. This control is designed to produce a 10-50%* phosphorylated peptide in the Kinase Reaction.
as §6
as §7, with “Bar-coded Corning, low volume NBS, black 384-well plate (Corning Cat. #3676) • 1. Add the” for “Add the”
SelectScreen® Kinase Profiling Service uses XLfit from IDBS. The dose response curve is curve fit to model number 205 (sigmoidal dose-response model).
The table below provides specifications and data around each kinase. The representative IC50 value with a known inhibitor for each kinase was determined at the ATP bin nearest to the ATP Km app.

PAK1, sequence (Q13153 whole entry): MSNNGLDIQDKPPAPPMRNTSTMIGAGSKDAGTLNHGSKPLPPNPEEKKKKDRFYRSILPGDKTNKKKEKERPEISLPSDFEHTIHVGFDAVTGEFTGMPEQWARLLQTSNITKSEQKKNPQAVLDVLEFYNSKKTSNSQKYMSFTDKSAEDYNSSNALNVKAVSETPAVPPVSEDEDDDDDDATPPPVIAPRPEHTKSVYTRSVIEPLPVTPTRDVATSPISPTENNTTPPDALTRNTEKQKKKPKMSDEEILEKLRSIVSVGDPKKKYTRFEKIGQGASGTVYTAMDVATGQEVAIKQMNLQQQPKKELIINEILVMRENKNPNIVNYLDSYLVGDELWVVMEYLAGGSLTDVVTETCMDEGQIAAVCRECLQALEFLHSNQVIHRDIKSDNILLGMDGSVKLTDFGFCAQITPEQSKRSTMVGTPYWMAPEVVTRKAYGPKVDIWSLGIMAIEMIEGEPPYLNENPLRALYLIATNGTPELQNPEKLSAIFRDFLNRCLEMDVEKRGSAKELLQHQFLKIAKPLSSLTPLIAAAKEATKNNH

Compound	IC50 (PAK1) [nM]	IC50 (PAK2 (PAK65)) [nM]	IC50 (PAK3) [nM]	IC50 (PAK4) [nM]
CCn1c(=O)c(-c2ccc(-c3ccnc(C)c3)cc2Cl)cc2cnc(Nc3ccc(N4CCN(C)CC4)cc3)nc21	< 50	< 50	< 50	≥ 5000
CCn1c(=O)c(-c2ccc(-c3ccc(F)nc3C)cc2Cl)cc2cnc(Nc3ccc(C4CCNCC4)c(F)c3)nc21	50 to 500	50 to 500	50 to 500	≥ 5000
Cc1ncc(-c2ccc(-c3cc4cnc(Nc5ccc(CCN(C)C)cc5)nc4n(C)c3=O)c(Cl)c2)s1	< 50	< 50	< 50	≥ 5000
CCN(CC)CCc1ccc(Nc2ncc3cc(-c4ccc(-c5cccnc5C)cc4Cl)c(=O)n(CC)c3n2)cc1	< 50	< 50	50 to 500	≥ 5000
CCn1c(=O)c(-c2ccc(-c3cccnc3C)cc2Cl)cc2cnc(Nc3ccc(N4CCN(C)CC4)cc3)nc21	< 50	< 50	< 50	≥ 5000
CCN1CCC(c2ccc(Nc3ncc4cc(-c5ccc(-c6cccnc6C)cc5Cl)c(=O)n(CC)c4n3)cc2F)CC1	< 50	50 to 500	50 to 500	≥ 5000
CCn1c(=O)c(-c2ccc(-c3cnc(C)s3)cc2Cl)cc2cnc(Nc3ccc(C4CCNCC4)c(F)c3)nc21	< 50	< 50	< 50	500 to 5000
CCn1c(=O)c(-c2ccc(-c3cc(C)nc(C)n3)cc2Cl)cc2cnc(Nc3ccc(C4CCN(C)CC4)cc3)nc21	< 50	< 50	50 to 500	≥ 5000
Cc1nc(-c2ccc(-c3cc4cnc(Nc5ccc(CCN(C)C)cc5)nc4n(C)c3=O)c(Cl)c2)no1	< 50	< 50	< 50	≥ 5000
CCn1c(=O)c(-c2ccc(-c3cncnc3)cc2Cl)cc2cnc(Nc3ccc(N4CCNCC4)c(F)c3)nc21	< 50	< 50	< 50	500 to 5000
CCn1c(=O)c(-c2ccc(-c3csc(C)n3)s2)cc2cnc(Nc3ccc(N4CCN(C)CC4)cc3)nc21	> 5000	> 5000	> 5000	≥ 5000
CCn1c(=O)c(-c2ccc(-c3cccnc3C)cc2C)cc2cnc(Nc3ccc(C4CCN(C)CC4)cc3)nc21	< 50	50 to 500	50 to 500	≥ 5000
CCn1c(=O)c(-c2ccc(C3CC3)cc2)cc2cnc(Nc3ccc(N4CCN(C)CC4)cc3)nc21	50 to 500	500 to 5000	500 to 5000	≥ 5000
CCn1c(=O)c(-c2ccc(-c3cccnc3)s2)cc2cnc(Nc3ccc(N4CCN(C)CC4)cc3)nc21	> 5000	> 5000	> 5000	≥ 5000
CCn1c(=O)c(-c2ccc(-c3cccnc3F)cc2Cl)cc2cnc(Nc3ccc(C4CCNCC4)c(F)c3)nc21	< 50	< 50	< 50	500 to 5000
CC(=O)Nc1ccc(-c2ccc(Cl)c(-c3cc4cnc(Nc5ccc(C6CCN(C)CC6)cc5)nc4n(C)c3=O)c2)cn1	> 5000	> 5000	> 5000	500 to 5000
CCn1c(=O)c(-c2ccc(-c3cnc(C)s3)cc2Cl)cc2cnc(Nc3ccc(C4CCN5CCCC5C4)cc3)nc21 (centres unmarked)	< 50	< 50	< 50	500 to 5000
